Test results from paper PMC12736120, “First-in-Human Phase I Clinical Trial of SLC-391, a Novel and Selective AXL Inhibitor, in Patients with Advanced Solid Tumours” (Pharmaceuticals, 2025).

Assay: Phase I safety and tolerability (DLTs, adverse events, laboratory, ECG)
Format: in vivo
Experimental: This study employed a standard 3 + 3 dose escalation design with a starting dose of 25 mg QD. […] Dose escalation decisions took into account all available data from evaluable subjects as well as PK and the safety profile of prior dose cohorts. […] There was a minimum 5-day stagger between dosing of the first and second subjects in each dose cohort. Dose escalation decisions were made by a data review committee (DRC) composed of, at minimum, the medical monitor, at least one principal investigator, and a sponsor representative, per the study DRC Plan. Dose escalation could continue until 2 or more subjects in the same dose cohort experienced a dose-limiting toxicity (DLT). DLTs were defined as Grade 3 or 4 adverse drug reactions (ADRs), with grades as defined in the National Cancer Institute Common Toxicity Criteria for Adverse Events (NCI-CTCAE) version 5.0. […] The MTD was defined as the highest dose at which no more than 1 of 6 subjects experienced a DLT during cycle 1 of the study drug. The MTD would have been exceeded if 2 or more subjects in a dose cohort of up to 6 subjects experienced a DLT. Subjects could continue treatment until disease progression, unacceptable toxicity, death, withdrawal of consent, or loss to follow-up.
Before enrolment in the study, all patients received a detailed medical history and physical examination. Clinical laboratory evaluations included clinical chemistry, complete blood count, urinalysis, coagulation factors, and a lipid panel. Other safety assessments included vital signs, physical examination, electrocardiogram, and echocardiogram with multigated acquisition (ECHO/MUGA). Safety assessments were performed on days 1, 8, 15, and 21 of cycle 1, and on day 1 of cycles 2 to 6.

[1] = Grade 1, Overall Study (N = 35)
[2] = Grade 2, Overall Study (N = 35)

SMILES: Nc1ncc(-c2cnn(C3CCNCC3)c2)cc1-c1nnc(CC2CC2)o1 [SLC-391, 3-(5-[cyclopropylmethyl]-1,3,4-oxadiazol-2-yl)-5-(1-[piperidin-4-yl]-1H-pyrazol-4-yl)-pyridin-2-amine]
- TEAE: Abdominal distension [1]: 4 (11.4) n (%)
- TEAE: Abdominal pain [1]: 4 (11.4) n (%)
- TEAE: Back pain [1]: 1 (2.9) n (%)
- TEAE: Blood and lymphatic system disorders [1]: 1 (2.9) n (%)
- TEAE: Chills [1]: 6 (17.1) n (%)
- TEAE: Constipation [1]: 10 (28.6) n (%)
- TEAE: Cough [1]: 6 (17.1) n (%)
- TEAE: Decreased appetite [1]: 7 (20.0) n (%)
- TEAE: Diarrhoea [1]: 14 (40.0) n (%)
- TEAE: Dizziness [1]: 4 (11.4) n (%)
- TEAE: Dysgeusia [1]: 1 (2.9) n (%)
- TEAE: Dyspnoea [1]: 2 (5.7) n (%)
- TEAE: Fatigue [1]: 10 (28.6) n (%)
- TEAE: Gastrointestinal disorders [1]: 15 (42.9) n (%)
- TEAE: General disorders and administration site conditions [1]: 12 (34.3) n (%)
- TEAE: Haematuria [1]: 4 (11.4) n (%)
- TEAE: Headache [1]: 5 (14.3) n (%)
- TEAE: Infections and infestations [1]: 1 (2.9) n (%)
- TEAE: Investigations [1]: 7 (20.0) n (%)
- TEAE: Metabolism and nutrition disorders [1]: 5 (14.3) n (%)
- TEAE: Musculoskeletal and connective tissue disorders [1]: 7 (20.0) n (%)
- TEAE: Nausea [1]: 15 (42.9) n (%)
- TEAE: Nervous system disorders [1]: 11 (31.4) n (%)
- TEAE: Oedema peripheral [1]: 3 (8.6) n (%)
- TEAE: Psychiatric disorders [1]: 3 (8.6) n (%)
- TEAE: Pyrexia [1]: 4 (11.4) n (%)
- TEAE: Renal and urinary disorders [1]: 3 (8.6) n (%)
- TEAE: Respiratory, thoracic, and mediastinal disorders [1]: 5 (14.3) n (%)
- TEAE: Skin and subcutaneous tissue disorders [1]: 6 (17.1) n (%)
- TEAE: Vomiting [1]: 13 (37.1) n (%)
- TEAE: Weight decreased [1]: 6 (17.1) n (%)
- Any treatment-emergent adverse event (TEAE) (Grade 2, Overall BID (N = 15)): 7 (46.7) n (%)
- TEAE: Abdominal distension (Grade 2, Overall BID (N = 15)): 1 (6.7) n (%)
- TEAE: Abdominal pain (Grade 2, Overall BID (N = 15)): 0 n (%)
- TEAE: Back pain (Grade 2, Overall BID (N = 15)): 2 (13.3) n (%)
- TEAE: Blood and lymphatic system disorders (Grade 2, Overall BID (N = 15)): 0 n (%)
- TEAE: Constipation (Grade 2, Overall BID (N = 15)): 2 (13.3) n (%)
- TEAE: Cough (Grade 2, Overall BID (N = 15)): 1 (6.7) n (%)
- TEAE: Decreased appetite (Grade 2, Overall BID (N = 15)): 4 (26.7) n (%)
- TEAE: Diarrhoea (Grade 2, Overall BID (N = 15)): 2 (13.3) n (%)
- TEAE: Dysgeusia (Grade 2, Overall BID (N = 15)): 2 (13.3) n (%)
- TEAE: Dyspnoea (Grade 2, Overall BID (N = 15)): 5 (33.3) n (%)
- TEAE: Fatigue (Grade 2, Overall BID (N = 15)): 5 (33.3) n (%)
- TEAE: Gastrointestinal disorders (Grade 2, Overall BID (N = 15)): 5 (33.3) n (%)
- TEAE: General disorders and administration site conditions (Grade 2, Overall BID (N = 15)): 6 (40.0) n (%)
- TEAE: Haematuria (Grade 2, Overall BID (N = 15)): 1 (6.7) n (%)
- TEAE: Infections and infestations (Grade 2, Overall BID (N = 15)): 5 (33.3) n (%)
- TEAE: Investigations (Grade 2, Overall BID (N = 15)): 1 (6.7) n (%)
- TEAE: Metabolism and nutrition disorders (Grade 2, Overall BID (N = 15)): 5 (33.3) n (%)
- TEAE: Musculoskeletal and connective tissue disorders (Grade 2, Overall BID (N = 15)): 3 (20.0) n (%)
- TEAE: Nausea (Grade 2, Overall BID (N = 15)): 4 (26.7) n (%)
- TEAE: Nervous system disorders (Grade 2, Overall BID (N = 15)): 2 (13.3) n (%)
- TEAE: Oedema peripheral (Grade 2, Overall BID (N = 15)): 1 (6.7) n (%)
- TEAE: Psychiatric disorders (Grade 2, Overall BID (N = 15)): 2 (13.3) n (%)
- TEAE: Pyrexia (Grade 2, Overall BID (N = 15)): 0 n (%)
- TEAE: Renal and urinary disorders (Grade 2, Overall BID (N = 15)): 1 (6.7) n (%)
- TEAE: Respiratory, thoracic, and mediastinal disorders (Grade 2, Overall BID (N = 15)): 6 (40.0) n (%)
- TEAE: Skin and subcutaneous tissue disorders (Grade 2, Overall BID (N = 15)): 0 n (%)
- TEAE: Urinary tract infection (Grade 2, Overall BID (N = 15)): 3 (20.0) n (%)
- TEAE: Vascular disorders (Grade 2, Overall BID (N = 15)): 1 (6.7) n (%)
- TEAE: Vomiting (Grade 2, Overall BID (N = 15)): 1 (6.7) n (%)
- Any treatment-emergent adverse event (TEAE) (Grade 2, Overall QD (N = 20)): 12 (60.0) n (%)
- TEAE: Abdominal distension (Grade 2, Overall QD (N = 20)): 1 (5.0) n (%)
- TEAE: Abdominal pain (Grade 2, Overall QD (N = 20)): 1 (5.0) n (%)
- TEAE: Back pain (Grade 2, Overall QD (N = 20)): 1 (5.0) n (%)
- TEAE: Blood and lymphatic system disorders (Grade 2, Overall QD (N = 20)): 1 (5.0) n (%)
- TEAE: Constipation (Grade 2, Overall QD (N = 20)): 2 (10.0) n (%)
- TEAE: Cough (Grade 2, Overall QD (N = 20)): 0 n (%)
- TEAE: Decreased appetite (Grade 2, Overall QD (N = 20)): 1 (5.0) n (%)
- TEAE: Diarrhoea (Grade 2, Overall QD (N = 20)): 3 (15.0) n (%)
- TEAE: Dysgeusia (Grade 2, Overall QD (N = 20)): 1 (5.0) n (%)
- TEAE: Dyspnoea (Grade 2, Overall QD (N = 20)): 4 (20.0) n (%)
- TEAE: Fatigue (Grade 2, Overall QD (N = 20)): 6 (30.0) n (%)
- TEAE: Gastrointestinal disorders (Grade 2, Overall QD (N = 20)): 6 (30.0) n (%)
- TEAE: General disorders and administration site conditions (Grade 2, Overall QD (N = 20)): 8 (40.0) n (%)
- TEAE: Haematuria (Grade 2, Overall QD (N = 20)): 0 n (%)
- TEAE: Infections and infestations (Grade 2, Overall QD (N = 20)): 3 (15.0) n (%)
- TEAE: Investigations (Grade 2, Overall QD (N = 20)): 0 n (%)
- TEAE: Metabolism and nutrition disorders (Grade 2, Overall QD (N = 20)): 2 (10.0) n (%)
- TEAE: Musculoskeletal and connective tissue disorders (Grade 2, Overall QD (N = 20)): 2 (10.0) n (%)
- TEAE: Nausea (Grade 2, Overall QD (N = 20)): 4 (20.0) n (%)
- TEAE: Nervous system disorders (Grade 2, Overall QD (N = 20)): 2 (10.0) n (%)
- TEAE: Oedema peripheral (Grade 2, Overall QD (N = 20)): 0 n (%)
- TEAE: Psychiatric disorders (Grade 2, Overall QD (N = 20)): 0 n (%)
- TEAE: Pyrexia (Grade 2, Overall QD (N = 20)): 1 (5.0) n (%)
- TEAE: Renal and urinary disorders (Grade 2, Overall QD (N = 20)): 1 (5.0) n (%)
- TEAE: Respiratory, thoracic, and mediastinal disorders (Grade 2, Overall QD (N = 20)): 6 (30.0) n (%)
- TEAE: Skin and subcutaneous tissue disorders (Grade 2, Overall QD (N = 20)): 3 (15.0) n (%)
- TEAE: Urinary tract infection (Grade 2, Overall QD (N = 20)): 1 (5.0) n (%)
- TEAE: Vascular disorders (Grade 2, Overall QD (N = 20)): 2 (10.0) n (%)
- TEAE: Vomiting (Grade 2, Overall QD (N = 20)): 2 (10.0) n (%)
- Any treatment-emergent adverse event (TEAE) [2]: 19 (54.3) n (%)
- TEAE: Abdominal distension [2]: 2 (5.7) n (%)
- TEAE: Abdominal pain [2]: 1 (2.9) n (%)
- TEAE: Back pain [2]: 3 (8.6) n (%)
- TEAE: Blood and lymphatic system disorders [2]: 1 (2.9) n (%)
- TEAE: Constipation [2]: 4 (11.4) n (%)
- TEAE: Cough [2]: 1 (2.9) n (%)
- TEAE: Decreased appetite [2]: 5 (14.3) n (%)
- TEAE: Diarrhoea [2]: 5 (14.3) n (%)
- TEAE: Dysgeusia [2]: 3 (8.6) n (%)
- TEAE: Dyspnoea [2]: 9 (25.7) n (%)
- TEAE: Fatigue [2]: 11 (31.4) n (%)
- TEAE: Gastrointestinal disorders [2]: 11 (31.4) n (%)
- TEAE: General disorders and administration site conditions [2]: 14 (40.0) n (%)
- TEAE: Haematuria [2]: 1 (2.9) n (%)
- TEAE: Infections and infestations [2]: 8 (22.9) n (%)
- TEAE: Investigations [2]: 1 (2.9) n (%)
- TEAE: Metabolism and nutrition disorders [2]: 7 (20.0) n (%)
- TEAE: Musculoskeletal and connective tissue disorders [2]: 5 (14.3) n (%)
- TEAE: Nausea [2]: 8 (22.9) n (%)
- TEAE: Nervous system disorders [2]: 4 (11.4) n (%)
- TEAE: Oedema peripheral [2]: 1 (2.9) n (%)
- TEAE: Psychiatric disorders [2]: 2 (5.7) n (%)
- TEAE: Pyrexia [2]: 1 (2.9) n (%)
- TEAE: Renal and urinary disorders [2]: 2 (5.7) n (%)
- TEAE: Respiratory, thoracic, and mediastinal disorders [2]: 12 (34.3) n (%)
- TEAE: Skin and subcutaneous tissue disorders [2]: 3 (8.6) n (%)
- TEAE: Urinary tract infection [2]: 4 (11.4) n (%)
- TEAE: Vascular disorders [2]: 3 (8.6) n (%)
- TEAE: Vomiting [2]: 3 (8.6) n (%)
- Any treatment-emergent adverse event (TEAE) (Grade 3, Overall BID (N = 15)): 6 (40.0) n (%)
- TEAE: Blood and lymphatic system disorders (Grade 3, Overall BID (N = 15)): 1 (6.7) n (%)
- TEAE: Diarrhoea (Grade 3, Overall BID (N = 15)): 1 (6.7) n (%)
- TEAE: Dyspnoea (Grade 3, Overall BID (N = 15)): 0 n (%)
- TEAE: Fatigue (Grade 3, Overall BID (N = 15)): 1 (6.7) n (%)
- TEAE: Gastrointestinal disorders (Grade 3, Overall BID (N = 15)): 1 (6.7) n (%)
- TEAE: General disorders and administration site conditions (Grade 3, Overall BID (N = 15)): 1 (6.7) n (%)
- TEAE: Infections and infestations (Grade 3, Overall BID (N = 15)): 1 (6.7) n (%)
